Experimental data from patent US20250367166A1, “NEXT GENERATION DIPROVOCIMS THAT ACTIVATE THE INNATE AND ADAPTIVE IMMUNE RESPONSE” (The Scripps Research Institute, priority 2022, published 2025).

Assays:
TLR1/TLR2 [1] = target: TLR1/TLR2 (Homo sapiens, UniProt O60603+Q15399); assay: TNF-α release from PMA-differentiated human THP-1 cells (ELISA); conditions: for Emax: THP-1, 4 h, read-out: Efficacy (magnitude) of response versus diprovocim-1 (100%), THP-1; for EC50: read-out: EC50 (nM) (THP-1): EC50 TNF-α release from human THP-1 cells, Table 6;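 on all read-outs here: cells exposed to graded compound concentrations for 4 h, TNF-α quantified in supernatant, LPS as positive and DMSO as negative control, values are duplicate means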
TLR1/TLR2 [2] = target: TLR1/TLR2 (Mus musculus, UniProt Q9EPQ1+Q9QUN7); assay: TNF-α release from thioglycolate-elicited mouse peritoneal macrophages (ELISA); conditions: for Emax: 4 h, read-out: Efficacy (magnitude) of response versus diprovocim-1 (100%), mouse macrophages; for EC50: read-out: EC50 (nM) (mouse): EC50 TNF-α release from mouse macrophages, Table 6
TLR1/TLR2 (Mus musculus, UniProt Q9EPQ1+Q9QUN7), sequence (Q9EPQ1 26-795): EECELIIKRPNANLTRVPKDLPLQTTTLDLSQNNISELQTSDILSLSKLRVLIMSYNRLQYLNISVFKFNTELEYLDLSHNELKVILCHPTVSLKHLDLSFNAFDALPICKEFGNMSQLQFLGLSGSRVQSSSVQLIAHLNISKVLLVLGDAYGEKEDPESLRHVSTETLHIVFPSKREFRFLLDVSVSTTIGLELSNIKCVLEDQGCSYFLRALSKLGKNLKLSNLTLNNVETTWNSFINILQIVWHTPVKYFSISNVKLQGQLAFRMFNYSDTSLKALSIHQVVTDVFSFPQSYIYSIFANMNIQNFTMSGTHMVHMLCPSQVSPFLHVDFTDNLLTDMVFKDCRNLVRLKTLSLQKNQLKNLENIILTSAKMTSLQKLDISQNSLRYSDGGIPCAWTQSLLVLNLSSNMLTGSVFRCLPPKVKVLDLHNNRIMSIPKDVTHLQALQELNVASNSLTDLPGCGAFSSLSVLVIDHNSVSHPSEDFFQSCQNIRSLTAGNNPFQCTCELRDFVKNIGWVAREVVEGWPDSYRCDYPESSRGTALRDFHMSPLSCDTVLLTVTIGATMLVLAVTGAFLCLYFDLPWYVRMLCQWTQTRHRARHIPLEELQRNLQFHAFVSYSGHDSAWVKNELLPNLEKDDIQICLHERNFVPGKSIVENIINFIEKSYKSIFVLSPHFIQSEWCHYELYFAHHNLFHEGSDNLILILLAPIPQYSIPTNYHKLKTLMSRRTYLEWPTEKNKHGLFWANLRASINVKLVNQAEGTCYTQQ
TLR1/TLR2 (Mus musculus, UniProt Q9EPQ1+Q9QUN7), sequence (Q9QUN7 25-784): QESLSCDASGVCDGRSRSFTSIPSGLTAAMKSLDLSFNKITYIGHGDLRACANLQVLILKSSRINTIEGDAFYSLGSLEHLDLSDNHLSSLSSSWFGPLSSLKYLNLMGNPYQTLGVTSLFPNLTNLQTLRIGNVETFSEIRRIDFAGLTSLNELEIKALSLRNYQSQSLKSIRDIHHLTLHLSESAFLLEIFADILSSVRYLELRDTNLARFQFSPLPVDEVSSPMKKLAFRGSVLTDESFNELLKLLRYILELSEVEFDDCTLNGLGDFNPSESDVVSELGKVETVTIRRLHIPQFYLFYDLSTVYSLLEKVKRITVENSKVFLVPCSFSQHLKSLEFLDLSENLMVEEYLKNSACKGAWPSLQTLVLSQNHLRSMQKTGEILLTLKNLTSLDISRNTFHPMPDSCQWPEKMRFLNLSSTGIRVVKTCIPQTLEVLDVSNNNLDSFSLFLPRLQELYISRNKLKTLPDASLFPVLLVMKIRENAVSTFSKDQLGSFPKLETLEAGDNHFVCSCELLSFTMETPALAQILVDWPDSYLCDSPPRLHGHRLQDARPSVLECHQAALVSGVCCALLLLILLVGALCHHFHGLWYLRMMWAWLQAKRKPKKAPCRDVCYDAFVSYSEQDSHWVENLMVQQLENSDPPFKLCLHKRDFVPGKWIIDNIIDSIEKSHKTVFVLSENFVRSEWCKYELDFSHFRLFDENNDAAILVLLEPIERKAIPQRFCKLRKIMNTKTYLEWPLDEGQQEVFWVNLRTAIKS
Protocol: Thioglycolate-elicited macrophages were recovered 4 days after i.p. injection of 2 mL BBL thioglycolate medium, brewer modified (4%; BD Biosciences) by peritoneal lavage with 5 mL phosphate buffered saline (PBS). […] Cells were seeded onto 96-well plates at 1×10^3 cells per well and treated with systematically varied concentrations of the candidate compounds (dissolved in DMSO, and final assay DMSO concentrations (0.5%) were kept constant in all experiments) for 4 h. Ultra-pure LPS (dissolved in H2O, Enzo Life Sciences) was assessed alongside the compounds as a positive control and DMSO treated controls. […] Mouse TNF-α in the supernatants was measured by ELISA kits according to the manufacturer's instructions (eBioscience). EC50's were calculated by Graphpad Prism. All data is mean of duplicates and SD is within ±10% of mean. Mouse cells were from wild type C57BL/6J mice.

TLR1/TLR2 (Homo sapiens, UniProt O60603+Q15399), sequence (Q15399 25-786): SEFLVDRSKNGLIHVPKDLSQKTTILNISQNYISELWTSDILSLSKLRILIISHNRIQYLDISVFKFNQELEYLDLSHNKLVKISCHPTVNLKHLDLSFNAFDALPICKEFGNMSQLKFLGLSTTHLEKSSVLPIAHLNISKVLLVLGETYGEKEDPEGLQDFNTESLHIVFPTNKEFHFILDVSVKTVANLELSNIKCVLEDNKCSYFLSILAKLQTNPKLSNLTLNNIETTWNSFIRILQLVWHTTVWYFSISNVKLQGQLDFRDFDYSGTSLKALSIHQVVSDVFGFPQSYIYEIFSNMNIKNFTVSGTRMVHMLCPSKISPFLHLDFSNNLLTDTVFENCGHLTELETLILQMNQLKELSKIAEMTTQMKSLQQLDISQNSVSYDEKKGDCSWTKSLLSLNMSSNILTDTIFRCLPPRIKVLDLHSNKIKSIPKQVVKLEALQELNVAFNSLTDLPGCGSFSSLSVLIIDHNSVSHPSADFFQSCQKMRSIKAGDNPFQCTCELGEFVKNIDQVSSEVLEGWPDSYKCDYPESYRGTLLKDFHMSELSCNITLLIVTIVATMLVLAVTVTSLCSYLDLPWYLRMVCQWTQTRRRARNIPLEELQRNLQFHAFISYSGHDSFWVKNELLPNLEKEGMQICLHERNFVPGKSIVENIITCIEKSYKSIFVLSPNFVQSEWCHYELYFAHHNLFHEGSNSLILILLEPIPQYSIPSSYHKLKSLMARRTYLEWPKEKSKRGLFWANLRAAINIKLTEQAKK
TLR1/TLR2 (Homo sapiens, UniProt O60603+Q15399), sequence (O60603 21-784): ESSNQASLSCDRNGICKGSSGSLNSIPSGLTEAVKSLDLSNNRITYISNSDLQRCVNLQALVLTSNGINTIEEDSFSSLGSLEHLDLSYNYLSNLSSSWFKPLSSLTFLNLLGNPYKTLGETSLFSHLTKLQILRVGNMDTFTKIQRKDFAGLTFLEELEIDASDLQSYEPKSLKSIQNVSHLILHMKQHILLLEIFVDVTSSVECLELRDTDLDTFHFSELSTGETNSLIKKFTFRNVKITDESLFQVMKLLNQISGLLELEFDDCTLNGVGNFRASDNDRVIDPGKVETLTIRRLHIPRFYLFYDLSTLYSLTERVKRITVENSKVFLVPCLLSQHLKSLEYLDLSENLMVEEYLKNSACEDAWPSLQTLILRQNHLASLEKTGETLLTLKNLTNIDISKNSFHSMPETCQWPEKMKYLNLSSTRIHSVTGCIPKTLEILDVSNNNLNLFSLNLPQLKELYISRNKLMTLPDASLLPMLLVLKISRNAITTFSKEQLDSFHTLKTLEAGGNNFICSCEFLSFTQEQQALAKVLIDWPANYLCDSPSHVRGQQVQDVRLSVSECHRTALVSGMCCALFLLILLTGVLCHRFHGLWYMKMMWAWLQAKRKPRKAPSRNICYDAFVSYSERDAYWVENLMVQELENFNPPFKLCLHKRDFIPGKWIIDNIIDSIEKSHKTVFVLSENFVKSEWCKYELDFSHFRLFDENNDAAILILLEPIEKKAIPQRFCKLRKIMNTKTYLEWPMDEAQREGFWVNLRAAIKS

CC(C)(C)OC(=O)C(=O)NCC(=O)OCCCCCCCCCCCCNC(=O)[C@@H]1CN(C(=O)c2ccc(C(=O)N3C[C@@H](C(=O)N[C@H]4C[C@@H]4c4ccccc4)[C@H](C(=O)N[C@H]4C[C@@H]4c4ccccc4)C3)cc2)C[C@H]1C(=O)N[C@H]1C[C@@H]1c1ccccc1 [Compound 83, tert-Butyl 2-((2-((12-((3S,4S)-1-(4-((3S,4S)-3,4-bis(((1S,2R)-2-phenylcyclopropyl)carbamoyl)-pyrrolidine-1-carbonyl)benzoyl)-4-(((1S,2R)-2-phenylcyclopropyl)carbamoyl)pyrrolidine-3-carboxamido)dodecyl)oxy)-2-oxoethyl)amino)-2-oxoacetate]
Emax (TLR1/TLR2 [1]): 110% | EC50 (TLR1/TLR2 [1]): 0.54 nM | Emax (TLR1/TLR2 [2]): 400% | EC50 (TLR1/TLR2 [2]): 16 nM

O=C(CNC(=O)C(=O)O)OCCCCCCCCCCCCNC(=O)[C@@H]1CN(C(=O)c2ccc(C(=O)N3C[C@@H](C(=O)N[C@H]4C[C@@H]4c4ccccc4)[C@H](C(=O)N[C@H]4C[C@@H]4c4ccccc4)C3)cc2)C[C@H]1C(=O)N[C@H]1C[C@@H]1c1ccccc1 [Compound 84, 2-((2-((12-((3S,4S)-1-(4-((3S,4S)-3,4-Bis(((1S,2R)-2-phenylcyclopropyl)carbamoyl)pyrrolidine-1-carbonyl)benzoyl)-4-(((1S,2R)-2-phenylcyclopropyl)carbamoyl)pyrrolidine-3-carboxamido)-dodecyl)oxy)-2-oxoethyl)amino)-2-oxoacetic acid]
Emax (TLR1/TLR2 [1]): 120% | EC50 (TLR1/TLR2 [1]): 0.23 nM | Emax (TLR1/TLR2 [2]): 250% | EC50 (TLR1/TLR2 [2]): 6.7 nM

CC(C)(C)OC(=O)c1ccc(C(=O)NCCOCCCCCCCCCCCCNC(=O)[C@@H]2CN(C(=O)c3ccc(C(=O)N4C[C@@H](C(=O)N[C@H]5C[C@@H]5c5ccccc5)[C@H](C(=O)N[C@H]5C[C@@H]5c5ccccc5)C4)cc3)C[C@H]2C(=O)N[C@H]2C[C@@H]2c2ccccc2)cc1 [Compound 85, tert-Butyl 4-((2-((12-((3S,4S)-1-(4-((3S,4S)-3,4-bis-(((1S,2R)-2-phenylcyclopropyl)carbamoyl)-pyrrolidine-1-carbonyl)benzoyl)-4-(((1S,2R)-2-phenylcyclopropyl)-carbamoyl)pyrrolidine-3-carboxamido)dodecyl)-oxy)ethyl)carbamoyl)benzoate]
Emax (TLR1/TLR2 [1]): 110% | EC50 (TLR1/TLR2 [1]): 13.4 nM | Emax (TLR1/TLR2 [2]): 160% | EC50 (TLR1/TLR2 [2]): 36 nM

O=C(O)c1ccc(C(=O)NCCOCCCCCCCCCCCCNC(=O)[C@@H]2CN(C(=O)c3ccc(C(=O)N4C[C@@H](C(=O)N[C@H]5C[C@@H]5c5ccccc5)[C@H](C(=O)N[C@H]5C[C@@H]5c5ccccc5)C4)cc3)C[C@H]2C(=O)N[C@H]2C[C@@H]2c2ccccc2)cc1 [Compound 86, 4-((2-((12-((3S,4S)-1-(4-((3S,4S)-3,4-Bis(((1S,2R)-2-phenylcyclopropyl)carbamoyl)pyrrolidine-1-carbonyl)benzoyl)-4-(((1S,2R)-2-phenylcyclopropyl)-carbamoyl)pyrrolidine-3-carboxamido)dodecyl)-oxy)ethyl)carbamoyl)benzoic acid]
Emax (TLR1/TLR2 [1]): 100% | EC50 (TLR1/TLR2 [1]): 2.9 nM | Emax (TLR1/TLR2 [2]): 50% | EC50 (TLR1/TLR2 [2]): 49 nM
